Results reported in the supplement of paper PMC10307832.

Tests used:
Experiment in all cases: relative viability (nuclei count vs DMSO), 5 days (fraction); higher = more cells survive
[1] = compound: COC1=CC=C(C=C1)CN2C=CC3=C2C=C(C=C3)C(=O)NO + Nc1ncn([C@H]2C[C@H](O)[C@@H](CO)O2)c(=O)n1 [Decitabine] (partner 2 µM)
How it was run: (§1)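 For relative viability, nuclei counts in treated wells were divided by those in vehicle wells. Lung cancer cell lines had been pin-tool dosed in 1536-well plates the day after seeding and cultured for 5 days, then fixed and stained in one step (final 0.05% Triton X-100, 1% formaldehyde, 1 ug/ml Hoechst) and imaged at 4×. Doses were one drug alone or a fixed anchor-drug dose plus five library-drug doses (not always all listed) in √10 steps, and values are duplicate-plate medians.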

Veliparib + Vorinostat = compound: C[C@]1(c2nc3c(C(N)=O)cccc3[nH]2)CCCN1 [Veliparib] + O=C(CCCCCCC(=O)Nc1ccccc1)NO [Vorinostat] (partner 1 µM)
How it was run: as §1

Veliparib + Tozasertib = compound: C[C@]1(c2nc3c(C(N)=O)cccc3[nH]2)CCCN1 [Veliparib] + Cc1cc(Nc2cc(N3CCN(C)CC3)nc(Sc3ccc(NC(=O)C4CC4)cc3)n2)n[nH]1 [Tozasertib] (partner 0.1 µM)
How it was run: as §1

[2] = compound: COC1=CC=C(C=C1)CN2C=CC3=C2C=C(C=C3)C(=O)NO + C[C@@H](Oc1cc(-c2cnn(C3CCNCC3)c2)cnc1N)c1c(Cl)ccc(F)c1Cl [Crizotinib] (partner 1 µM)
How it was run: as §1

Cell Line | relative viability ([1]; first compound 0.08 µM) | relative viability ([1]; first compound 0.253 µM) | relative viability ([1]; first compound 0.8 µM) | relative viability ([1]; first compound 2.53 µM) | relative viability ([1]; first compound 8 µM) | relative viability (Veliparib + Vorinostat; first compound 0.02 µM) | relative viability (Veliparib + Vorinostat; first compound 0.06325 µM) | relative viability (Veliparib + Vorinostat; first compound 0.2 µM) | relative viability (Veliparib + Vorinostat; first compound 0.6325 µM) | relative viability (Veliparib + Vorinostat; first compound 2 µM) | relative viability (Veliparib + Tozasertib; first compound 0.02 µM) | relative viability (Veliparib + Tozasertib; first compound 0.06325 µM) | relative viability (Veliparib + Tozasertib; first compound 0.2 µM) | relative viability (Veliparib + Tozasertib; first compound 0.6325 µM) | relative viability (Veliparib + Tozasertib; first compound 2 µM) | relative viability ([2]; first compound 0.08 µM) | relative viability ([2]; first compound 0.253 µM) | relative viability ([2]; first compound 0.8 µM) | relative viability ([2]; first compound 2.53 µM) | relative viability ([2]; first compound 8 µM)
NCI-H596 | 1.04 | 1.78 | 1.15 | 0.922 | 1 | 0.659 | 0.55 | 0.498 | 0.624 | 0.55 | 0.838 | 0.774 | 0.99 | 0.859 | 0.811 | 1.05 | 0.961 | 0.963 | 0.868 | 1.01
LXF-289 |  | 0.413 | 0.391 | 0.386 | 0.329 | 0.809 | 0.812 | 0.743 | 0.655 | 0.794 | 0.194 | 0.193 | 0.233 | 0.208 | 0.216 | 0.317 | 0.827 | 0.827 | 0.803 | 0.793
ABC-1 |  | 1.16 | 1.21 | 1.21 | 0.929 |  |  | 0.979 | 1.37 | 0.875 |  | 0.196 | 0.137 | 0.175 | 0.17 |  | 1.3 | 1.17 | 1.31 | 1.12
NCI-H2087 | 0.25 | 0.295 | 0.288 | 0.319 | 0.192 | 0.504 | 0.747 | 0.875 | 0.645 | 0.726 | 0.258 | 0.235 | 0.222 | 0.203 | 0.27 | 0.819 | 0.842 | 0.993 | 0.913 | 0.767
NCI-H441 | 0.258 | 0.239 | 0.258 | 0.237 | 0.276 | 0.75 | 0.552 | 0.63 | 0.695 | 0.83 | 0.633 | 0.608 | 0.529 | 0.541 | 0.683 | 1.25 | 0.835 | 0.862 | 0.787 | 0.597
NCI-H3122 | 0.467 | 0.479 | 0.484 | 0.468 | 0.386 | 0.906 | 1.05 | 0.972 | 0.929 | 1.07 | 0.439 | 0.428 | 0.453 | 0.383 | 0.395 | 0.266 | 0.275 | 0.292 | 0.317 | 0.284
